# Laboratory results taken from patent publication US20240208912A1 (Mirati Therapeutics, Inc., priority 2021, published 2024).
# Where two headings read alike, the source gives them in different places.
# How the values were obtained:
# [1] = tested on: PRMT5-dependent Symmetric Di-methyl Arginine signal in HCT116 homozygous MTAP Knockout cells; test: SYM11 In-Cell Western in HCT116 homozygous MTAP knockout cells; format: cell-based
# Protocol: HCT116 cells were genetically engineered to knock out the function of both MTAP alleles using a CRISPR/Cas9 system and an sgRNA targeting the MTAP gene. Following Cas9/MTAP sgRNA transduction, clones were screened to confirm that each allele of the MTAP gene had been inactivated (i.e., homozygous MTAP knock out) creating an MTAP-deficient cell.
# Control samples were analyzed in parallel.
# Briefly, on Day 0, 2,000 HCT116 parental or HCT116 homozygous MTAP knockout cells were seeded in 96 well plates in McCoy's 5A supplemented with 10% fetal bovine serum and pen/strep and the cells were incubated overnight at 37° C. plus 5% CO2. The following day, cells were treated with DMSO vehicle control or a dose response of PRMT5 inhibitors, and incubated at 37° C. plus 5% CO^2 for four days.
# After 4 days of treatment, the cells were fixed by adding 50 μl of 4% paraformaldehyde solution to each well and the cells were incubated for 20 min at room temperature. The paraformaldehyde solution was removed, 150 μl of ice-cold methanol was added and the plate was placed −20° C. for 10 minutes. The methanol was removed, 150 μl of Odyssey Blocking buffer+0.05% Tween20 was added and the plate was incubated at room temperature with shaking for one hour.
# The primary SYM11 antibody solution was removed by aspiration and the wells were washed three consecutive times with phosphate buffered saline containing 0.1% Tween-20 (PBST).
# The secondary antibody solution was removed by aspiration and the wells were washed three consecutive times with PBST.
# The SYM11 signal and the DRAQ5 signal were quantified using a Li-Cor Odyssey machine reading at […], respectively. The SYM11/DRAQ5 ratio was used to calculate the inhibition of Symmetric Dimethyl Arginine as percent of DMSO control.
# [2] = tested on: HCT116 homozygous MTAP knockout cells; test: Proliferation assay (CellTiter-Glo, 10 days) in HCT116 homozygous MTAP knockout cells; format: cell-based; conditions: CellTiter-Glo after 10 days of treatment, read-out: Proliferation IC50 (nM) HCT116 MTAP_KO
# Procedure, shortened: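 MTAP-null HCT116 clone made by CRISPR/Cas9 knockout of both alleles, tested beside parental cells. Cells dosed the day after seeding, split 1:10 on day 6 into fresh medium with the same compound level, and read on day 11 by CellTiter-Glo. IC50 taken after 10 days of exposure.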
# PRMT5/MEP50 complex = target: T1, PRMT5/MEP50 complex (Homo sapiens, UniProt O14744); test: PRMT5:MEP50 HotSpot Assay (full-length histone H2A substrate, plus and minus MTA); format: biochemical; conditions: IC50 + 2 μM MTA, in the presence of 2 μM MTA
# T1 construct: purchased Reaction Biology Corporation
# T1 sequence (O14744 2-637 limits assumed): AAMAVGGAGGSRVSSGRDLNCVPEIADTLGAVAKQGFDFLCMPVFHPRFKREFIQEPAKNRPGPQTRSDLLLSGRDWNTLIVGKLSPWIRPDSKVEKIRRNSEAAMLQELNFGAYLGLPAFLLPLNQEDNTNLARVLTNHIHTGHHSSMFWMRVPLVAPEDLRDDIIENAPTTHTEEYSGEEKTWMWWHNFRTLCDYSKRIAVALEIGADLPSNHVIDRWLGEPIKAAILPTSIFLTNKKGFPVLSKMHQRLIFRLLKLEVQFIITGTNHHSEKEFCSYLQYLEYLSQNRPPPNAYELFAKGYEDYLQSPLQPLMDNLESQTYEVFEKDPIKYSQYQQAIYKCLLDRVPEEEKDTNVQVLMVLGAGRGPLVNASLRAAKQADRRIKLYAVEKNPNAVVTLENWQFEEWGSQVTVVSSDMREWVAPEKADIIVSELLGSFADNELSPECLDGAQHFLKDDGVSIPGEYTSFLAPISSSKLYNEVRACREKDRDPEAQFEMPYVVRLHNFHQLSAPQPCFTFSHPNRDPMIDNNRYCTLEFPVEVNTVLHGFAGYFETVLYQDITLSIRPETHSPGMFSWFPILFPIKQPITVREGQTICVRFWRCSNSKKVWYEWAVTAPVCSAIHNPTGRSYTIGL
# T1 sequence (Q9BQA1 2-342 partner limits assumed): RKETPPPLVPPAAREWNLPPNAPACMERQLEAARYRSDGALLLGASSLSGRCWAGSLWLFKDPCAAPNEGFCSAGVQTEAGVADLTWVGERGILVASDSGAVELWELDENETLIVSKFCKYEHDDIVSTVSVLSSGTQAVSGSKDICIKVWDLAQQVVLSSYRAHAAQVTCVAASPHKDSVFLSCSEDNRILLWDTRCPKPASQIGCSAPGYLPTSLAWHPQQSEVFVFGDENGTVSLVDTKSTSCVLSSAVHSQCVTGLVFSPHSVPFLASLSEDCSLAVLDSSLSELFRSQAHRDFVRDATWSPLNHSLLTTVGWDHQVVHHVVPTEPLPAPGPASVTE
# Procedure, shortened: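 Radiometric HotSpot format using recombinant full-length histone H2A as substrate, run with and without MTA. Reactions were stopped and spotted onto filter paper. Tritiated H2A was quantified by scintillation counting.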
# [3] = 4 days of treatment, SYM11/DRAQ5 ratio as percent of DMSO control, read-out: In-cell-Western (SYM11) IC50 (nM) HCT116 MTAP_KO
# [4] = Homo sapiens, HCT-116, 96 h, 4 days of treatment, SYM11/DRAQ5 ratio as percent of DMSO control, read-out: In-cell-Western (SYM11) IC50 (nM) HCT116 MTAP_KO
# [5] = read-out: In-cell-Western (SYM11) IC50 (nM) HCT116 MTAP_KO, 4 days of treatment, SYM11/DRAQ5 ratio as percent of DMSO control
SMILES,"IC50 [1, 3] [nM]","IC50 [1, 4] [nM]","IC50 ([2]; Homo sapiens, HCT-116, 240 h) [nM]",other results
"Cc1cc(-c2cnn(C)c2-c2c(F)c(Cl)c3ccccc3c2C#N)cc2c(CN)n[nH]c(=O)c12 (atropisomer, axis not shown; (M)) [Example 16-18, (M)-2-[4-[4-(aminomethyl)-8-methyl-1-oxo-2H-phthalazin-6-yl]-2-methyl-pyrazol-3-yl]-4-chloro-3-fluoro-naphthalene-1-carbonitrile]",13,,,IC50 [2]: 19 nM
"Cc1cc(-c2cnn(C)c2-c2c(F)c(Cl)c3ccccc3c2C#N)cc2c(CN)n[nH]c(=O)c12 (atropisomer, axis not shown; (P)) [Example 16-17, (P)-2-[4-[4-(aminomethyl)-8-methyl-1-oxo-2H-phthalazin-6-yl]-2-methyl-pyrazol-3-yl]-4-chloro-3-fluoro-naphthalene-1-carbonitrile]",129,,,IC50 [2]: 285 nM
"Cc1ccc(-c2c(-c3ccc4c(=O)[nH]nc(CN)c4c3)cnn2C)c(C#N)c1 [Example 4-106, 2-(4-(4-(aminomethyl)-1-oxo-1,2-dihydrophthalazin-6-yl)-1-methyl-1H-pyrazol-5-yl)-5-methylbenzonitrile]",,26,,
"Cn1ncc(-c2ccc3c(=O)[nH]nc(CN)c3c2)c1-c1c(F)cc2ccccc2c1C#N [Example 4-203, 2-(4-(4-(aminomethyl)-1-oxo-1,2-dibydrophthalazin-6-yl)-1-methyl-1H-pyrazol-5-yl)-3-fluoro-1-naphthonitrile]",2,,,
"Cn1ncc(-c2ccc3c(=O)[nH]nc(CN)c3c2)c1-c1cc2ccccn2c1C#N [Example 4-256, 2-[4-[4-(aminomethyl)-1-oxo-2H-phthalazin-6-yl]-2-methyl-pyrazol-3-yl]indolizine-3-carbonitrile]",,1000,,
"Cn1ncc(-c2ccc3c(=O)[nH]nc(CN)c3c2)c1-c1ccc2ccc(Cl)cc2c1C#N [Example 4-258, 2-[4-[4-(aminomethyl)-1-oxo-2H-phthalazin-6-yl]-2-methyl-pyrazol-3-yl]-7-chloro-naphthalene-1-carbonitrile]",,28,89,
"Cn1ncc(-c2ccc3c(=O)[nH]nc(CN)c3c2)c1-c1c(Cl)cc2ccccc2c1Cl [Example 4-259, 4-(aminomethyl)-6-[5-(1,3-dichloro-2-naphthyl)-1-methyl-pyrazol-4-yl]-2H-phthalazin-1-one]",,97,837,
"Cn1ncc(-c2ccc3c(=O)[nH]nc(CN)c3c2)c1-c1ccc2ncc(F)cc2c1C#N [Example 4-264, 6-[4-[4-(aminomethyl)-1-oxo-2H-phthalazin-6-yl]-2-methyl-pyrazol-3-yl]-3-fluoro-quinoline-5-carbonitrile]",,23,83,
"Cn1ncc(-c2ccc3c(=O)[nH]nc(CN)c3c2)c1-c1cccc2cccc(C#N)c12 [Example 4-265, 8-[4-[4-(aminomethyl)-1-oxo-2H-phthalazin-6-yl]-2-methyl-pyrazol-3-yl]naphthalene-1-carbonitrile]",,1000,1650,
"Cn1ncc(-c2cc(Cl)c3c(=O)[nH]nc(CN)c3c2)c1-c1c(F)c(Cl)cc(OC2CC2)c1C#N [Example 10-25, 2-[4-[4-(aminomethyl)-8-chloro-1-oxo-2H-phthalazin-6-yl]-2-methyl-pyrazol-3-yl]-4-chloro-6-(cyclopropoxy)-3-fluoro-benzonitrile]",,8,30,
"Cc1cc(-c2cnn(C)c2-c2c(C#N)cc3ccccc3c2Cl)cc2c(CN)n[nH]c(=O)c12 [Example 10-26, 3-[4-[4-(aminomethyl)-8-methyl-1-oxo-2H-phthalazin-6-yl]-2-methyl-pyrazol-3-yl]-4-chloro-naphthalene-2-carbonitrile]",,35,83,
"Cn1ncc(-c2ccc3c(=O)[nH]nc(CN)c3c2)c1-c1c(F)c(Cl)cc(OC2CC2)c1C#N [Example 16-7, 2-(4-(4-(aminomethyl)-1-oxo-1,2-dihydrophthalazin-6-yl)-1-methyl-1H-pyrazol-5-yl)-4-chloro-6-cyclopropoxy-3-fluorobenzonitrile]",,,,"IC50 [1, 5]: 1000 nM"
"Cn1ncc(-c2ccc3c(=O)[nH]nc(CN)c3c2)c1-c1c(F)c(Cl)cc(OC2CC2)c1C#N [Example 16-8, 2-(4-(4-(aminomethyl)-1-oxo-1,2-dihydrophthalazin-6-yl)-1-methyl-1H-pyrazol-5-yl)-4-chloro-6-cyclopropoxy-3-fluorobenzonitrile]",,,,"IC50 [1, 5]: 0.8 nM"

# The next lines start with results.
"IC50 [1, 3] [nM]","IC50 [1, 4] [nM]","IC50 ([2]; Homo sapiens, HCT-116, 240 h) [nM]",SMILES,other results
10,,,"Cc1cc(-c2cnn(C)c2-c2c(F)ccc(OC3CC3)c2C#N)cc2c(CN)n[nH]c(=O)c12 (atropisomer, axis not shown; (M)) [Example 16-48, (M)-2-[4-[4-(aminomethyl)-8-methyl-1-oxo-2H-phthalazin-6-yl]-2-methyl-pyrazol-3-yl]-6-(cyclopropoxy)-3-fluoro-benzonitrile]",IC50 [2]: 19 nM; IC50 (PRMT5/MEP50 complex): 0.128 µM
,25,,"Cc1c(F)c(-c2c(-c3cc(Cl)c4c(=O)[nH]nc(CN)c4c3)cnn2C)c(C#N)c2ncc(Cl)cc12 (atropisomer, axis not shown; (M)) [Example 16-98, (M)-7-(4-(4-(aminomethyl)-8-chloro-1-oxo-1,2-dihydrophthalazin-6-yl)-1-methyl-1H-pyrazol-5-yl)-3-chloro-6-fluoro-5-methylquinoline-8-carbonitrile]",IC50 (PRMT5/MEP50 complex): 0.552 µM
79,,,"N#Cc1c(OC2CC2)cc(Cl)c(F)c1-c1c(-c2ccc3c(=O)[nH]nc(CN)c3c2)cnn1C(F)(F)F (atropisomer, axis not shown; (M)) [Example 16-120, (M)-2-(4-(4-(aminomethyl)-1-oxo-1,2-dihydrophthalazin-6-yl)-1-(trifluoromethyl)-1H-pyrazol-5-yl)-4-chloro-6-cyclopropoxy-3-fluorobenzonitrile]",IC50 (PRMT5/MEP50 complex): 0.257 µM
1000,,,"N#Cc1c(OC2CC2)cc(Cl)c(F)c1-c1c(-c2ccc3c(=O)[nH]nc(CN)c3c2)cnn1C(F)(F)F (atropisomer, axis not shown; (P)) [Example 16-119, (P)-2-(4-(4-(aminomethyl)-1-oxo-1,2-dihydrophthalazin-6-yl)-1-(trifluoromethyl)-1H-pyrazol-5-yl)-4-chloro-6-cyclopropoxy-3-fluorobenzonitrile]",IC50 (PRMT5/MEP50 complex): 0.489 µM
,22,,"Cc1c(F)c(-c2c(-c3cc(C)c4c(=O)[nH]nc(CN)c4c3)cnn2C)c(C#N)c2ncc(Cl)cc12 (single isomer, unassigned) [Example 16-96, (M)-7-(4-(4-(aminomethyl)-8-methyl-1-oxo-1,2-dihydrophthalazin-6-yl)-1-methyl-1H-pyrazol-5-yl)-3-chloro-6-fluoro-5-methylquinoline-8-carbonitrile]",IC50 (PRMT5/MEP50 complex): 5.94 µM
,538,3870,"CCc1cccc(-c2c(-c3cc4c(CN)n[nH]c(=O)c4cn3)cnn2C)c1C#N [Example 17-1, 2-[4-[1-(aminomethyl)-4-oxo-3H-pyrido[3,4-d]pyridazin-7-yl]-2-methyl-pyrazol-3-yl]-6-ethyl-benzonitrile]",
,80,432,"Cn1ncc(-c2ccc3c(=O)[nH]nc(CN)c3c2F)c1-c1ccc2ccccc2c1C#N [Example 17-2, 2-[4-[4-(aminomethyl)-5-fluoro-1-oxo-2H-phthalazin-6-yl]-2-methyl-pyrazol-3-yl]naphthalene-1-carbonitrile]",
